Assay results taken from patent publication US12421218B2, “Substituted pyrazine-carboxamide derivatives” (Boehringer Ingelheim International GmbH, priority 2022, dated 2025).

Target: human metabotropic Glutamate 4 receptor (mGluR4) (Homo sapiens (Human), UniProt Q14833)
Test: Assay A: In vitro testing of mGluR4 potency (cAMP HTRF, glutamate/forskolin stimulated)
Assay type: cell-based
Conditions: HEK293 cells overexpressing human mGluR4; 10 uM L-glutamic acid, 1 uM forskolin
Experimental: A. In Vitro Testing of mGluR4 Potency
The in vitro activity of the compounds according to the invention may be investigated as follows:
The HEK293 cell overexpressing the human metabotropic Glutamate 4 receptor are thawed at 37° C. and immediately diluted with cell culture medium. After centrifugation, the cell pellet is re-suspended in medium and then distributed from a stirred spinner flask into the wells of the assay plate. The plates are incubated for one hour at room temperature before they are incubated for 24 hours at 37° C./5% CO2. After washing the cells in the plate three times with 80 uL HBSS/HEPES buffer (10 uL buffer remained in the wells after washing), 5 uL per well of compounds diluted in HBSS/HEPES buffer containing 0.2% BSA (final concentration: 0.1%) and 1 mM IBMX (final concentration: 0.5 mM) are added to the wells of the assay plate. Thereafter 5 uL per well of L-Glutamic acid (final concentration: 10 uM), forskolin (final concentration: 1 uM) and 1 mM IBMX (final concentration: 0.5 mM) dissolved in HBSS/HEPES buffer containing 0.2% BSA (final concentration: 0.1%) are added to the assay plate (final DMSO concentration: 1%). […] The emission at 615 nm and 665 nm (Excitation wavelength: 320 nm) are measured on the EnVision™ reader (PerkinElmer). The ratio between the emission at 665 nm and 615 is calculated by the reader. […]

Chain of human metabotropic Glutamate 4 receptor (mGluR4) (Q14833 33-912): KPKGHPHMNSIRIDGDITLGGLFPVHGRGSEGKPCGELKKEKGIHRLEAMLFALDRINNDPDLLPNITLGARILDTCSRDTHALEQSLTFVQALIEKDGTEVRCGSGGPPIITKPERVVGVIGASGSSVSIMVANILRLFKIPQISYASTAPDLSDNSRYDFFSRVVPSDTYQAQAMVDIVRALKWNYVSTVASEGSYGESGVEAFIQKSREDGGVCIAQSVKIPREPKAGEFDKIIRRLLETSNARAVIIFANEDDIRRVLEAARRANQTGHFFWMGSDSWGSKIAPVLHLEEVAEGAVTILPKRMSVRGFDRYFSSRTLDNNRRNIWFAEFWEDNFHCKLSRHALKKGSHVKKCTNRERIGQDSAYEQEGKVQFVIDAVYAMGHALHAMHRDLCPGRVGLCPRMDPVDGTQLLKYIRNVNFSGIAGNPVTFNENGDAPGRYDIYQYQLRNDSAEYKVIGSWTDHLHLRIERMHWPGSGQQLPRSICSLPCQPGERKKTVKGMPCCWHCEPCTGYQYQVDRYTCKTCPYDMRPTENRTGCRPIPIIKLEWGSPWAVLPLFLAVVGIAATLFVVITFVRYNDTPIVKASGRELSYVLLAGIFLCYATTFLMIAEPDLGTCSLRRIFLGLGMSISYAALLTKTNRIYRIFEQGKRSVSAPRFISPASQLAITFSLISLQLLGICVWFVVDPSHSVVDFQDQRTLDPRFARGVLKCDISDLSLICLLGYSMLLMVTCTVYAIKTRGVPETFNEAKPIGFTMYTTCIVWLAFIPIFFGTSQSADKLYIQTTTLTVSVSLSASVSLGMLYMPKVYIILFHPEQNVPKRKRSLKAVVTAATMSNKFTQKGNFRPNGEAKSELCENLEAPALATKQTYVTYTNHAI

IC50: 4 nM
SMILES: CCn1c([C@@H](NC(=O)c2cnc(C(F)F)cn2)C(C)C)nc2cc(F)ccc21 [Example 59, 5-(difluoromethyl)-N-[(1S)-1-(1-ethyl-5-fluoro-1H-1,3-benzodiazol-2-yl)-2-methylpropyl]pyrazine-2-carboxamide]
